In patent US20060122137A1, “5'-methylpyrimidine and 2'-O-methyl ribonucleotide modified double-stranded ribonucleic acid molecules” (Nastech Pharmaceutical Company Inc., priority 2003, published 2006):

Experiments:
[1] = system: ribonucleases present in rat plasma; assay: Stability of siRNA in rat plasma (PAGE gel, densitometry); type: in vitro ADME; details: for level of degradation on PAGE gel after treatment with plasma: fresh rat plasma, 37° C., time points 0, 30, 60 and 20 min; for Stability Ranking: rat plasma 37° C.
Description: At various time points (0, 30, 60 and 20 min), 50 μ*l of the mixture was taken out and immediately extracted by phenol:chloroform. SiRNAs were dried following precipitation by adding 2.5 volume of isopropanol alcohol and subsequent washing step with 70% ethanol. After dissolving in water and gel loading buffer the samples were analyzed on 20% polyacrylamide gel, containing 7 M urea and visualized by ethidium bromide staining and quantitated by densitometry.
The purpose of this experiment was to determine whether 2′-O-methyl modified ribonucleotides and the substitution of uridines with ribothymidines (5-methyluridine) provide for greater siRNA stability against rat plasma ribonucleases.
At various time points (0, 30, 60 and 20 min), 50 μl of the mixture was taken out and immediately extracted by phenol:chloroform. siRNAs were dried following precipitation by adding 2.5 volume of isopropanol alcohol and subsequent washing step with 70% ethanol. After resuspending in water and gel loading buffer the samples were analyzed gel electrophoresis on a 20% polyacrylamide gel, containing 7 M urea and subsequently visualized by ethidium bromide staining and quantified by densitometry.

[2] = Thermal melting profiles (Tm) of β-gal siRNA duplexes; type: physicochemical; details: for Avg. Tm from 1st Exp. / Tm: 1st experiment; for Avg. Tm from 2nd Exp.: 2nd (duplicate) experiment; for melts at a temperature of: text summary of Table 7; for melting temperature higher than the wild type (duplex I): versus duplex I
Text: The purpose of this experiment was to determine the effect of incorporating ribothymidines in a double stranded RNA molecule in place of uridines on the melting temperature (TM) of the siRNA molecule. A higher Tm correlates with increased siRNA duplex stability.
To determine the effect of replacing uridines with ribothymidines in the siRNA duplex upon melting temperature, thermal melting profiles were generated for four β-galactosidase (β-gal) siRNA molecules (table 5). These four β-gal siRNA duplexes differ only by the presence or absence of ribothymidines in the siRNA duplex. Where rT is 5-methyluridine.
The stock solutions of single stranded oligonucleotides were prepared by dissolving the selected sequences in 400 μL 10 mM buffer phosphate pH 7.0 containing 0.1 M NaCl and 0.1 mM EDTA and diluted (1 μL to 200 μL) with water and absorbencies (A260) were measured and the contents were calculated. Also the integrity of the oligonucleotides was confirmed by HPLC analysis. To prepare the siRNA duplexes, the single stranded oligonucleotides were mixed and allowed to anneal. The UV absorption (A260) for each siRNA duplex was measured and their value are as follows: I (0.28), II (0.54), III (0.31), and IV (0.45). To test for reproducibility, the melting profile study was done in duplicate.
The thermal melting profiles of the duplexes I, II, III and IV were recorded on Shimadzu UV-VIS 1601 with thermoelectrically temperature controlled through the Peltier device. The temperature was changed at the rate of 0.5° C./minute from 90° C. to 25° C. while the absorption recorded at 260 nm. The reverse experiment is also repeated. The “melting” process is a physical phenomenon. Therefore, the generated profile (90° to 25°) ought to be superimposed on the reverse ([…] to 90°).
Differential curves were used to determine the melting point (Tm) of the duplexes. The shape of the curve defined by the derivative of a curve (versus 1/T) was used to make a robust determination of Tm and other thermodynamic data. Shimadzu TMSPC-8 and its associated software performed the needed calculations.

interferon response = assay: Interferon response in vitro; type: cell-based
Description: Interferon responsiveness is a potential side-effect of tranfecting cells with siRNAs. Thus, a study was performed in vitro to assess whether various isoforms of the LC20 siRNA would elicit an interferon response. Both unmodified and modified of the 19-mer LC20 siRNA and 21-mer LC20 siRNA were tested.

Substance | level of degradation on PAGE gel after treatment with plasma [1] | Avg. Tm from 1st Exp. [2] | Avg. Tm from 2nd Exp. [2] | Tm ([2]; Down profile) | Tm ([2]; Up profile) | melts at a temperature of [2] | melting temperature higher than the wild type (duplex I) [2] | Stability Ranking ([1]; LC13 siRNAs (Table 4)) | Stability Ranking ([1]; LC20 siRNAs (Table 3)) | interferon response (interferon response)
IV: β-gal siRNA, rT incorporated in the sense strand only (SEQ ID NO:3/4) (chain 1 CTACACAAATCAGCGATTTTT; chain 2 AAAUCGCUGAUUUGUGUAGTT; chain 1: RNA at 2, 10, 17, 18, 19, other sugars and backbone not given here; chain 2: RNA at 4, 8, 11, 12, 13, 15, 17, other sugars and backbone not given here; positions 1-19 ribonucleotides, further chemistry not fully specified) | little to no degradation | 67.8 °C | 67.8 °C | 67.8 °C | 67.8 °C | 67.8 °C | 2.9 °C |  |  | 
LC20-WT: Unmodified: 5′-GGGUCGGAACCCAAGCUUA dTdT-3′ / 3′-dAdT CCCAGCCUUGGGUUCGAAU-p-5′ |  |  |  |  |  |  |  | 4 | 4 | did not elicit an interferon response
I (WT): unmodified β-gal siRNA: CUACACAAAUCAGCGAUUU TT / TT GAUGUGUUUAGUCGCUAAA (sense CUACACAAAUCAGCGAUUUTT; antisense TTGAUGUGUUUAGUCGCUAAA; chemistry not fully specified; one strand is listed 3' to 5') [reference compound] | begins to degrade almost immediately | 64.9 °C | 64.9 °C | 65.6 °C | 64.3 °C |  |  |  |  | 
LC20-19mer: No 3′ overhangs and unmodified: 5′-GGGUCGGAACCCAAGCUUA-3′ / 3′-CCCAGCCUUGGGUUCGAAU-p-5′ (siRNA; 5' phosphate on antisense, chemistry not fully specified; one strand is listed 3' to 5') |  |  |  |  |  |  |  |  | 4 | did not elicit an interferon response
II: β-gal siRNA, all uracils in both strands changed to ribothymidine (SEQ ID NO:1/2) (chain 1 CNACACAAANCAGCGANNNTT; chain 2 AAANCGCNGANNNGNGNAGTT; RNA at 1, 2, 3, 4, 5, 6, 7, 8, 9, 10, 11, 12, 13, 14, 15, 16, 17, 18, 19, other sugars, backbone and the base at N not given here; all uracils replaced by ribothymidine in both strands) | little to no degradation | 72.35 °C | 72.25 °C | 72.8 °C | 71.9 °C | about 72.3 °C | 7.4 °C |  |  | 
LC20-MD23: 5′-GGGT^rCGGAACCCAAGCT^r U^MeOA^MeOdTdT-3′ / 3′-CCCAGCCUUGGGUUCGAAU-p-5′ |  |  |  |  |  |  |  |  | 3 | 
III: β-gal siRNA, rT incorporated in the anti-sense strand only (SEQ ID NO:5/6) (chain 1 CNACACAAANCAGCGANNNTT; chain 2 AAANCGCNGANNNGNGNAGTT; RNA at 1, 2, 3, 4, 5, 6, 7, 8, 9, 10, 11, 12, 13, 14, 15, 16, 17, 18, 19, other sugars, backbone and the base at N not given here; ribothymidine replaces uracil in antisense strand only) |  | 72.4 °C | 69.8 °C | 72.9 °C | 71.9 °C |  | approximately 4.9 °C |  |  | 
